In patent publication US20100137170A1, “DUAL USE WELL TREATMENT COMPOSITION” (JACAM CHEMICALS, LLC, priority 2008, published 2010):

Legend:
[1] = substitute ingredients in lieu of morpholine in THP/THPS-amino phosophono chelant compositions (crystal deposition); assay type: physicochemical; settings: ingredients employed alone and in various combinations in THP/THPS-amino phosophono chelant compositions
From the text: During the course of development of the present invention, a number of different ingredients were used in lieu of morpholine in THP/THPS-amino phosophono chelant compositions. None of these substitute materials were successful.

[2] = accelerated −30° F. storage test (crystal formation); assay type: physicochemical; settings: 1.5% by volume in the Example composition
Method: Additional morpholine derivatives were also tested in lieu of the morpholine in the above table, at the same amount (1.5% by volume) and by the accelerated −30° F. storage test. These derivatives were N-methylmorpholine, N-ethylmorpholine, N-methylmorpholine oxide, and N-aminopropylmorpholine.

SMILES | crystal deposition of product with ingredient used in lieu of morpholine [1] | result of accelerated storage test with derivative in lieu of morpholine [2]
C[N+]1([O-])CCOCC1 [N-methylmorpholine oxide] |  | satisfactory results
NCCCN1CCOCC1 [N-aminopropylmorpholine] |  | satisfactory results
CCN1CCOCC1 [N-ethylmorpholine] |  | satisfactory results
CN1CCOCC1 [N-methylmorpholine] |  | satisfactory results
CO [methyl alcohol] | prone to crystal deposition | 

The remaining lines, values ahead:

crystal deposition of product with ingredient used in lieu of morpholine [1] | result of accelerated storage test with derivative in lieu of morpholine [2] | SMILES
prone to crystal deposition |  | CC(C)O [isopropyl alcohol]
prone to crystal deposition |  | N [ammonium hydroxide]
prone to crystal deposition |  | [Na+].[OH-] [sodium hydroxide]
